Key:
[1] = test system: WNT-TCF targets; experiment: RT-qPCR gene expression in U87 glioblastoma cells; type: cell-based, human; conditions: 16h, batch 3, vs DMSO=1
Method: (§1) RT-qPCR was performed as in Melotti et al. (2014, supra) using BioRad equipment and reagents. Cells cultured in nitro were treated with the desired concentration of drug in DMEM-F12 and reduced serum (2.5% FBS) for 16h, unless otherwise noted, and collected in Trizol (Sigma) before total RNA extraction and cDNA synthesis. Primers were as in Table 1. HPRT (gene encoding Hypoxanthine phosphoribosyltransferase 1) and βACTIN were used as housekeeping controls for normalization.
(§2) Primary colon cells CC14, CC36 and mCC11, colon cancer cell lines DLD1, HT29, Ls174T, melanoma cell line MeWo, glioblastoma cell lines U87 and U251, and the lung cancer cell line H358 were cultured in DMEM-F12 with 10% FBS under standard in nitro conditions.

[2] = test system: Epigenetic regulators; experiment: RT-qPCR of epigenetic regulators in CC14 cells; type: cell-based, human; conditions: 0.5 µM
Method: as §1
(§3) The WNT-TCF-independent repressive activity of CAP2 on epigenetic regulators may be extrapolated to other cancer cells as it was also detected in HT29 and CC14 human colon cancer cells, in MeWo human melanoma cells as well as in U87 and U251 human glioma cells. In all these different human cancer cells, CAP2 (at 0.5 µM) modulated the expression of ZMYND8, SMARCAL1, TBLIXR1, SETD6 and TAF5Ls (Table 15).

[3] = test system: WNT-TCF targets; experiment: Epistatic rescue with TCF^VP16, mCC11; type: cell-based, human; conditions: CAP2 5µM, 16h
Method: (§4) Lentivectors expressing a TCF4^VP16 protein in a vector independently expressing GFP, or vector alone, plus reporter plasmids were transfected into cells. 72h after transfection cells were visually checked for expression of GFP. Independent batches of cells with >80% GFP expression were chosen for further experimentation and treated with or without compounds in DMEM-F12 (with 2.5% FBS) for 16h and collected in Trizol.
(§5) If the effects of CAP2 on WNT-TCF targets were specific, an activated form of TCF should rescue the repression since CAP2 is likely to act downstream of the APC destruction complex since it was found using an N'Δ form of βCATENIN that is APC insensitive. To activate this last step of canonical WNT signaling, a fusion between TCF and the potent transactivation domain of the viral VP16 protein, TCF^VP16 (Melotti et al., 2014, supra), was used to directly and positively regulate TCF targets. […] Rescue of LGR5, cMYC and ASCL2 repression by CAP2 (at 5µM) was also observed although there was variability between the cell types, similarly to the repression of CDKN1A (Table 8), although in all cases it reversed its enhancement by CAP2 treatment (Table 8).

[4] = test system: DLD1 cells; conditions: FACS, vs DMSO
Method: Cell were plated with different concentrations of compounds in a 96-well format and incubated in standard conditions for 6h and imaged. Active (cleaved) Caspase-3^+ apoptosis was determined using the BD Pharmigen kit and FACS (fluorescence-activated cell sorting).

[5] = test system: Epigenetic regulators; experiment: RT-qPCR of epigenetic regulators in MeWo cells; type: cell-based, human; conditions: 0.5 µM
Method: as §1, §3

[6] = test system: WNT-TCF targets; experiment: RT-qPCR gene expression in H358 lung cancer cells; type: cell-based, human; conditions: 16h, batch 3, vs DMSO=1
Method: as §1, §2

[7] = test system: WNT-TCF targets; experiment: RT-qPCR in cells dissociated from DLD1 xenograft tumors, treated in vitro; type: cell-based, human; conditions: 16h, vs DMSO
Method: as §1
Four DLD1 regressed tumors were monitored after cessation of CAP2 treatment to determine recurrence after drug withdrawal. […] Tumor regrowth, however, could be due in principle to insufficient drug dosage or to the development of drug resistance. To test these possibilities the recurrent tumor was thus excised and the cells plated in vitro to test for the possible development of CAP2 resistance. One control in vivo cyclodextrin-treated tumor taken before reaching the legal (at around 21 day) limit was similarly processed to serve as control. […] The levels of WNT-TCF targets were generally lower in cells derived from tumors that were exposed in vivo to CAP2 in comparison to those in cells from tumors that were not treated with CAP2 (Figure 10). […] This consistent difference in the levels of several WNT-TCF targets raised the possibility that whereas tumor recurrence might be due to incomplete initial dosage, the recurring tumor harbored the memory of previous CAP2 treatment.

[8] = test system: WNT-TCF targets; experiment: RT-qPCR gene expression in MeWo melanoma cells; type: cell-based, human; conditions: 16h, batch 3, vs DMSO=1
Method: as §1, §2

[9] = test system: WNT-TCF targets; experiment: RT-qPCR gene expression in U251 glioblastoma cells; type: cell-based, human; conditions: 16h, batch 3, vs DMSO=1
Method: as §1, §2

[10] = test system: WNT-TCF targets; experiment: Epistatic rescue with TCF^VP16, Ls174T; type: cell-based, human; conditions: CAP2 5µM, 16h
Method: as §4, §5

[11] = DLD1 CAP2-treated tumor dissociated re-treated in vitro, 2.5µM
[12] = DLD1 CAP2-treated tumor dissociated re-treated in vitro, 5µM
[13] = DLD1 control tumor dissociated treated in vitro, 2.5µM
[14] = DLD1 control tumor dissociated treated in vitro, 5µM

CC1=C(C)C(=O)O[C@@H]([C@](C)(O)[C@]2(O)CC[C@@]3(O)[C@@H]4CC=C5CC=CC(=O)[C@]5(C)[C@H]4CC[C@]23C)C1 [CAP2]
0.1: ZMYND8 expression [2] | ZMYND8 expression [5] | ASCL2 expression [7, 12] | cMYC expression [7, 12] | ASCL2 expression [7, 13] | ASCL2 expression [7, 14] | LEF1 expression ([8]; 1.25µM) | LEF1 expression ([8]; 5µM) | LEF1 expression ([8]; 10µM)
2.5 µM: concentration from which activated Caspase3 labeled cells increase [4]
0.9: AXIN2 expression ([9]; 1.25µM)
0.3: LGR5 expression ([1]; 1.25µM) | LGR5 expression ([1]; 2.5µM) | EED expression [2] | AXIN2 expression [7, 12] | LEF1 expression [7, 12] | LGR5 expression [7, 12] | cMYC expression [7, 13] | LEF1 expression [7, 14] | cMYC expression [7, 14] | AXIN2 expression ([8]; 5µM) | LGR5 expression ([9]; 2.5µM)
0.4: SETD6 expression [2] | LEF1 expression ([6]; 1.25µM) | LEF1 expression ([6]; 5µM) | AXIN2 expression ([6]; 10µM) | AXIN2 expression [7, 11] | LEF1 expression [7, 11] | LEF1 expression [7, 13] | LGR5 expression [7, 14] | AXIN2 expression ([8]; 1.25µM)
3.3: cMYC expression, TCF^VP16+ CAP2 / control + CAP2 [3]
0.05: ASCL2 expression [7, 11]
21.9: AXIN2 expression, TCF^VP16+ CAP2 / control + CAP2 [3]
0.7: AXIN2 expression ([1]; 1.25µM) | AXIN2 expression ([6]; 2.5µM) | LGR5 expression [7, 13] | AXIN2 expression ([9]; 5µM) | LGR5 expression, TCF^VP16+ CAP2 / control + CAP2 [10]
3.5: ASCL2 expression, TCF^VP16+ CAP2 / control + CAP2 [3]
2.7: cMYC expression, TCF^VP16+ CAP2 / control + CAP2 [10]
16.1: AXIN2 expression, TCF^VP16+ CAP2 / control + CAP2 [10]
2.9: LGR5 expression, TCF^VP16+ CAP2 / control + CAP2 [3]
0.5: AXIN2 expression ([1]; 2.5µM) | AXIN2 expression ([1]; 5µM) | TAF5L expression [2] | EED expression [5] | LGR5 expression ([9]; 1.25µM) | AXIN2 expression ([9]; 10µM) | CDKN1A expression, TCF^VP16+ CAP2 / control + CAP2 [10]
1.0: ASCL2 expression, TCF^VP16+ CAP2 / control + CAP2 [10]
0.6: AXIN2 expression ([1]; 10µM) | LEF1 expression ([6]; 2.5µM) | AXIN2 expression ([6]; 5µM) | LGR5 expression [7, 11] | AXIN2 expression [7, 13] | AXIN2 expression [7, 14] | AXIN2 expression ([8]; 2.5µM) | AXIN2 expression ([8]; 10µM)
1: SETD6 expression [5]
0.8: CDKN1A expression, TCF^VP16+ CAP2 / control + CAP2 [3] | TAF5L expression [5] | AXIN2 expression ([6]; 1.25µM) | AXIN2 expression ([9]; 2.5µM)
0.2: LGR5 expression ([1]; 5µM) | LGR5 expression ([1]; 10µM) | SMARCAL1 expression [2] | TBL1XR1 expression [2] | SMARCAL1 expression [5] | TBL1XR1 expression [5] | LEF1 expression ([6]; 10µM) | cMYC expression [7, 11] | LEF1 expression ([8]; 2.5µM) | LGR5 expression ([9]; 5µM) | LGR5 expression ([9]; 10µM)

From EP3248604A1, “AGENTS FOR MODULATION OF WNT-TCF SIGNALLING AND USES THEREOF” (UNIVERSITE DE GENEVE, priority 2016, dated 2017)
